Results taken from patent publication US20120309704A1, “COMPOSITIONS FOR TREATMENT OF CHEMORESISTANT AND/OR POTENTIALLY CHEMORESISTANT LEUKAEMIAS” (priority 2009, published 2012).

What was measured:
[1] = system: ALL cell lines REH, RS4, 11 and 697 and primary ALL cells; assay: MSC-mediated chemoresistance of ALL cell lines and primary ALL cells; type: cell-based, human
Procedure: FIG. 4. hERG1 activity regulates the chemoresistance induced by stromal cells in leukaemic cells a). […] The percentage of Annexin V +/ PI− cells was evaluated after 48 hours of culture.
For cell counting, after 48 hours of incubation at 37° C. and 5% di CO2, cells were recovered from the plates. We next evaluated the apoptosis. During apoptosis, a series of changes of plasma membrane occurs, one of these alterations of plasma membrane is the shift of phosphatidylserine (PS) from the inner to the outer surface of the cell. The recognition of PS by macrophage allows them to engulf the apoptotic cell, preventing the inflammatory process. The analysis of PS on the plasma membrane of apoptotic cells is performed by using annexin V-fluorescein and propidium iodide (PI) assay (Annexin-V-Fluos Staining Kit, Roche).
We then identified three cell populations: i) viable cells (annexin V-/propidium iodide-), ii) apoptotic cells (early apoptosis) (annexin V+), and iii) cells in late apoptosis or necrotic (annexin V+/propidium iodide+). All the cell lines (697, RS, REH) were cultured in the absence and in the presence of human bone marrow stromal cells (MSC) in order to reproduce as closely as possible the condition that occurs in the bone marrow.
After 48 hours of incubation, cells were separated from the stroma and processed for the analysis of apotosis.

[2] = system: AML cell lines and primary samples; settings: administration of hERG1 blockers; cited from earlier work
[3] = system: human leukaemic cells REH; assay: In vivo model of human leukaemia: REH cells inoculated into NOD/SCID mice
Procedure: FIG. 2. Effect of corticosteroids, inhibitors of hERG1 and of the combination corticosteroids/hERG1 inhibitors in an in vivo model of human leukaemia disease (human leukaemic cells REH inoculated into NOD/SCID mice). Cells were inoculated by injection into the caudal vein and seven days after the inoculum, animals were treated with E4031, Dexamethasone, Dexamethasone+E4031 for two weeks; control mice were treated, with the same schedule, solely with saline solution. At the end of the two weeks of treatment, animals were sacrificed and the spleen and bone marrow were removed. Bone marrow engraftment was evaluated by measuring the percentage of hCD45^+ cells versus mCD45^+ cells by flow cytometry. For the evaluation of apoptosis, the Tunel assay was performed on the histological sections of the treated animals.
In FIG. 2 the effects of corticosteroids, hERG1 inhibitors and combination of corticosteroids/hERG1 inhibitors in an in vivo model of human leukaemic disease (human leukaemic cells REH inoculated in NOD / SCID mice) is shown. The cells were inoculated by injection into the tail vein and seven days after injection, the animals were treated with E4031, dexamethasone, dexamethasone+E4031 for two weeks; the control mice were treated, according to the same protocol, only with saline.
At the end of two weeks of treatment the animals were sacrificed and the spleens and bone marrows were removed. The bone marrow engraftment was assessed by measuring the percentage of hCD45+cells versus mCD45+cells by flow cytometry. The Tunel assay for evaluation of apoptosis was performer on bone marrow histological sections from the control and treated animals.

[4] = system: ALL(3), ALL(4), ALL(6) cells; assay: Annexin V/propidium iodide apoptosis of primary ALL cells cultured in the absence or presence of MSC; type: cell-based, human; settings: FIG. 1C, co-culture with stromal cells
Procedure: The analysis is performed with the flow cytometer FACScan (Becton Dickinson). […] We next evaluated the apoptosis. […] The analysis of PS on the plasma membrane of apoptotic cells is performed by using annexin V-fluorescein and propidium iodide (PI) assay (Annexin-V-Fluos Staining Kit, Roche). The protocol of annexin requie, first, the preparation of the reaction mix, containing 20 μl of annexin and 20 μl of propidium iodide diluted in 1 ml of incubation buffer (1 ml of such mix is enough for 10 samples). About 10^6 cells are washed with PBS and centrifuged at 200 g for 5 minutes; the cell pellet is then resuspend in 100 μl of the solution previously described and incubated for 10-15 min at 15-25° C. The samples are resuspended in 500 μl of incubation buffer, before proceeding to flow cytometry analysis. […] After 48 hours of incubation, cells were separated from the stroma and processed for the analysis of apotosis.

For `CN(CCN(C)S(=O)(=O)c1ccc(NS(C)(=O)=O)cc1)c1nc2ccccc2n1C.Cl` [Way 123,398, N-metil-N-(2-(metil(1-metil-1H-benzimidazol-2-il)amino)etil)((metilsolfonil)amino)benzensolfonammide HCl], the MSC mediated chemoresistance [1] is given as “overcome” and the cellular growth [2] is given as “impairs cellular growth”.
With `Cc1cccc(CCN2CCC(C(=O)c3ccc(NS(C)(=O)=O)cc3)CC2)n1.Cl.Cl` [E4031, N-[4-[[1-[2-(6-Methyl-2-pyridyl)ethyl]-4-piperidinyl]carbonyl]phenyl]metanesolfonammide dihydrochloride] the MSC mediated chemoresistance [1] was “overcome”, the “effect on engraftment compared with dexamethasone alone” value [3] was “higher than that produced by dexamethasone alone” and the “apoptosis of ALL cells in the bone marrow” value ([3]; Tunel assay) was “increase”. For the same compound, the “engraftment in the bone marrow” value ([3]; treatment for two weeks starting seven days after inoculum, hCD45+ versus mCD45+ cells) was “reduced”.
In the case of `COc1cccc2c1C(=O)c1c(O)c3c(c(O)c1C2=O)C[C@@](O)(C(=O)CO)C[C@@H]3O[C@H]1C[C@H](N)[C@H](O)[C@H](C)O1` [doxorubicin], the “responsiveness of leukaemic cells co-cultured with stromal cells compared to leukaemic cells alone” value [4] is reported as “significantly less responsive”.
With `O=C1NCCN1CCN1CCC(c2cn(-c3ccc(F)cc3)c3ccc(Cl)cc23)CC1` [sertindole, 1-(2-{4-[5-chloro-1-(4-FLUORO-PHENYL)-1H-indole-3-IL]-IL-1-Piperidine}-ethyl)-imidazolidin-2-ONE, 1-[2-[4-[5-Chloro-1-(4-fluorophenyl)-1H-indole-3-a]-1-piperidinyl]ethyl]-2-Imidazolidinone] the MSC mediated chemoresistance [1] was “overcome”.
For `CC[C@H]1OC(=O)[C@H](C)[C@@H](O[C@H]2C[C@@](C)(OC)[C@@H](O)[C@H](C)O2)[C@H](C)[C@@H](O[C@@H]2O[C@H](C)C[C@H](N(C)C)[C@H]2O)[C@](C)(O)C[C@@H](C)C(=O)[C@H](C)[C@@H](O)[C@]1(C)O` [erythromycin, 6-(4-dimethylamino-3-hydroxy-6-methyl-Ossan-2-yl) oxy-14-ethyl-7,12,13-triidrossi-4-(5-hydroxy-4 methoxy-4,6-dimethyl -Ossan-2-yl) oxy-3,5,7,9,11,13-esametil ossaciclotetradecan-1-2,10-dione], the MSC mediated chemoresistance [1] was “overcome”.
